# Literature values as cited in patent US20140088145A1 (Teva Pharmaceutical Industries, Ltd., priority 2012, published 2014).
# Experiments:
# [1] = tested on: Huntington's disease patients; details: 45 mg daily or 90 mg daily for 6 months
# [2] = tested on: Huntington's disease patients; details: twice-daily doses of 45 mg over 12 weeks
# [3] = tested on: patients with HD
# [4] = in vivo
absolute bioavailability [4],SMILES,"tertiary endpoint UHDRS-TMS (changes in motor function) and individual items within the mMS (gait, dysarthria) [1]",effect on total motor function [2],"symptomatic relief incl. hand movements, gait and balance [3]"
,"CCCN1CCC(c2cccc(S(C)(=O)=O)c2)CC1 [pridopidine, 4-[3-(methylsulfonyl)phenyl]-1-propyl-piperidine]",statistically significant effect of treatment,significant effect on total motor function,significant symptomatic relief
about 36%,"C#CCN[C@@H]1CCc2ccccc21 [rasagiline, R(+)-N-propargyl-l-aminoindan]",,,
